Data on 31 compounds can be found in the supplement of paper PMC11616607.

In one assay the test system is Ovsaho. The assay can be described thus: drug sensitivity score (DSS) from 5-point dose-response viability curve (DSS (area-under-curve based score)); higher = more sensitive (stronger growth inhibition or killing); extreme values may be limits of the assay. Conditions: exposure time: 72 h; concentration range: 5 concentrations over 10,000-fold range. The gist of the method:
(§1)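 For the drug sensitivity score, obtained per cell line and drug in Breeze software, larger values mean greater sensitivity. No response corresponds to a score of zero. Ovarian cancer and normal ovarian cells were seeded at 1,500 per well into 384-well plates already holding acoustically dispensed drugs (Echo 550, DMSO or water, five concentrations over a 10,000-fold range) and incubated 3 days at 37°C, 5% CO2. CellTiter-Glo luminescence on a PHERAstar FS gave the viability readout.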
In turn, `CCOc1ccn(-c2ccc(F)cc2)c(=O)c1C(=O)Nc1ccc(Oc2ccnc(N)c2Cl)c(F)c1` registered a drug sensitivity score of 0.
On to `CCn1c(C(=O)N(C2CC2)C2CC2)cc2c3c(ncn3C)c(Nc3cc(C)n(C)n3)nc21`, for which the drug sensitivity score was found to be 0.
Take `C[C@@]1(C(=O)Nc2ccc(F)nc2)CCCN1c1nc(Nc2cc(C3CC3)n[nH]2)c2cccn2n1`: the drug sensitivity score is 7.5.
`Cc1c(-c2ccc(N3CCc4cccc(C(=O)Nc5nc6ccccc6s5)c4C3)nc2C(=O)O)cnn1CC12CC3CC(CC(C3)C1)C2` had a drug sensitivity score of 2.5.
Turning to `Cc1nn(C)c(COc2ccc(N3CCN(S(=O)(=O)N(C)C)CC3)cc2)c1-c1cccc2c(CCCOc3cccc4ccccc34)c(C(=O)O)n(CCN3CCOCC3)c12`, the drug sensitivity score is 8.6.
`O=c1[nH]c(C2CCCN2)nc2c1oc1ccc(Cl)cc12` (stereo unspecified) registered a drug sensitivity score of 0.
As for `COc1ccc(C[C@H](NC(=O)[C@H](C)NC(=O)CN2CCOCC2)C(=O)N[C@@H](Cc2ccccc2)C(=O)C2(C)CO2)cc1` (stereo in doubt) [ONX-0914], the drug sensitivity score worked out at 19.6.
In the case of `CC/C(=C(\c1ccc(O)cc1)c1ccc(OCCN(C)C)cc1)c1ccccc1` [4-hydroxytamoxifen], the drug sensitivity score came to 3.9.
`Nc1ncnc2c1nc(N)n2[C@@H]1O[C@H](CO)[C@@H](O)[C@H]1O` [8-amino-adenosine] yielded a drug sensitivity score of 26.
Still for that read-out and setting: under `Nc1ncnc2c1nc(Cl)n2[C@@H]1O[C@H](CO)[C@@H](O)[C@H]1O` [8-chloro-adenosine] stands 18.5; under `COc1cc2c(cc1OCCCN1CCCC1)N=C(N)C21CCC1` [A-366], 0.3; under `COc1ccc(S(=O)(=O)Nc2cccnc2Nc2ccc(O)cc2)cc1` [ABT-751], 7.
`C[C@H](Nc1ncnc2[nH]cnc12)c1cc2ccc(F)cc2nc1-c1ccccn1` [AMG319]: the drug sensitivity score was determined as 1.2.
Compound `COCCOc1cnc2ccn([C@H](C)c3nnc4c(F)cc(-c5cnn(C)c5)cn34)c(=O)c2c1` [AMG-337] had a drug sensitivity score of 0.
The compound `CC1CCC(n2c3cnccc3c3cnc(Nc4ccc5c(n4)CCN(C(=O)CO)C5)nc32)CC1` (stereo unspecified) [AMG-925] gave a drug sensitivity score of 0.1.
With `CC(C)[C@H](C(=O)Nc1ccc(C(=O)NO)cc1)c1ccccc1` [AR-42], the drug sensitivity score came to 9.
`Cc1sc2c(c1C)C(c1ccc(Cl)cc1)=N[C@@H](CC(=O)Nc1ccc(OCCOCCOCCOCCNc3cccc4c3C(=O)N(C3CCC(=O)NC3=O)C4=O)cc1)c1nnc(C)n1-2` (stereo partly specified) [ARV-825] gave a drug sensitivity score of 10.
Compound `COc1cc(N2CCC(N3CCN(C)CC3)CC2)ccc1Nc1ncnc(Nc2ccccc2S(=O)(=O)C(C)C)n1` [ASP3026] returned a drug sensitivity score of 4.7.
The same measure, in the same setting: the result for `O=C(NC1CCNCC1)c1n[nH]cc1NC(=O)c1c(Cl)cccc1Cl` [AT7519] reads 8.9.
In turn, `O=C(Nc1c[nH]nc1-c1nc2ccc(CN3CCOCC3)cc2[nH]1)NC1CC1` [AT9283] yielded a drug sensitivity score of 5.2.
The compound `CC[C@H](CC#N)OC(=O)N[C@@H](C)c1cccc(NC(=O)Nc2ccc(-c3cnco3)c(OC)c2)c1` [AVN944] came in with a drug sensitivity score of 9.5.
`COc1cc(N2CCN(C)CC2)ccc1Nc1nccc(-c2cn(C)c3cnccc23)n1` [AZ191] returned a drug sensitivity score of 1.6.
For the compound `COc1cc(OC2CCN(C)CC2)ccc1Nc1ncc2c(n1)n(C1CCCC1)c(=O)n2C` [AZ 3146], the drug sensitivity score was determined as 4.7.
For `CN(C)CCCOc1ccc(-c2ccc3ncc4c(c3c2)n(C2CCOCC2)c(=O)n4C)cn1` [AZD0156], the drug sensitivity score was 3.2.
The same measure, in the same setting: under `N[C@@H]1CCCN(c2c(/C=C3\SC(=O)NC3=O)cccc2-c2ccccc2)C1` [AZD1208] stands 3.5; under `Cc1cc(Nc2nc(N[C@@H](C)c3ncc(F)cn3)ncc2Cl)[nH]n1` [AZD1480], 0.7.
For `COc1cc2ncnc(Nc3cccc(Cl)c3F)c2cc1OC(=O)N1CCN(C)C[C@H]1C` [AZD3759], the drug sensitivity score was found to be 0.
`Cc1[nH]nc(C(F)(F)F)c1Cc1sc2c(c1C(=O)N1C[C@](C)(O)CO1)c(=O)n(C)c(=O)n2C(C)C` [AZD3965] registered a drug sensitivity score of 0.8.
In turn, `COc1cc(CCc2cc(NC(=O)c3ccc(N4CC(C)NC(C)C4)cc3)n[nH]2)cc(OC)c1` (stereo unspecified) [AZD4547] came in with a drug sensitivity score of 0.
On the same count and under the same terms, the result for `CN(C)C(=O)c1ccc(S(=O)(=O)c2ccc(NC(=O)[C@@](C)(O)C(F)(F)F)c(Cl)c2)cc1` [AZD7545] reads 0; that for `NC(=O)Nc1cc(-c2cccc(F)c2)sc1C(=O)N[C@H]1CCCNC1` [AZD7762], 4.

Another assay relates to Kuramochi. The description is as above. As to conditions: exposure time: 72 h; concentration range: 5 concentrations over 10,000-fold range. The gist of the method: as §1
Take `CCOc1ccn(-c2ccc(F)cc2)c(=O)c1C(=O)Nc1ccc(Oc2ccnc(N)c2Cl)c(F)c1`: the drug sensitivity score came to 0.
On the same count and under the same terms, under `CCn1c(C(=O)N(C2CC2)C2CC2)cc2c3c(ncn3C)c(Nc3cc(C)n(C)n3)nc21` stands 2.6; under `C[C@@]1(C(=O)Nc2ccc(F)nc2)CCCN1c1nc(Nc2cc(C3CC3)n[nH]2)c2cccn2n1`, 4.8.
Compound `Cc1c(-c2ccc(N3CCc4cccc(C(=O)Nc5nc6ccccc6s5)c4C3)nc2C(=O)O)cnn1CC12CC3CC(CC(C3)C1)C2` returned a drug sensitivity score of 0.
Still for that read-out and setting: the result for `Cc1nn(C)c(COc2ccc(N3CCN(S(=O)(=O)N(C)C)CC3)cc2)c1-c1cccc2c(CCCOc3cccc4ccccc34)c(C(=O)O)n(CCN3CCOCC3)c12` reads 7.8.
On to `O=c1[nH]c(C2CCCN2)nc2c1oc1ccc(Cl)cc12` (stereo unspecified), for which the drug sensitivity score was found to be 0.
`COc1ccc(C[C@H](NC(=O)[C@H](C)NC(=O)CN2CCOCC2)C(=O)N[C@@H](Cc2ccccc2)C(=O)C2(C)CO2)cc1` (stereo in doubt) [ONX-0914] showed a drug sensitivity score of 11.6.
On the same count and under the same terms, the result for `CC/C(=C(\c1ccc(O)cc1)c1ccc(OCCN(C)C)cc1)c1ccccc1` [4-hydroxytamoxifen] reads 4.2; that for `Nc1ncnc2c1nc(N)n2[C@@H]1O[C@H](CO)[C@@H](O)[C@H]1O` [8-amino-adenosine], 24.5; that for `Nc1ncnc2c1nc(Cl)n2[C@@H]1O[C@H](CO)[C@@H](O)[C@H]1O` [8-chloro-adenosine], 5.1.
`COc1cc2c(cc1OCCCN1CCCC1)N=C(N)C21CCC1` [A-366]: the drug sensitivity score is 1.2.
In turn, `COc1ccc(S(=O)(=O)Nc2cccnc2Nc2ccc(O)cc2)cc1` [ABT-751] came in with a drug sensitivity score of 7.4.
For the compound `C[C@H](Nc1ncnc2[nH]cnc12)c1cc2ccc(F)cc2nc1-c1ccccn1` [AMG319], the drug sensitivity score amounted to 1.1.
In the case of `COCCOc1cnc2ccn([C@H](C)c3nnc4c(F)cc(-c5cnn(C)c5)cn34)c(=O)c2c1` [AMG-337], the drug sensitivity score stood at 0.
The compound `CC1CCC(n2c3cnccc3c3cnc(Nc4ccc5c(n4)CCN(C(=O)CO)C5)nc32)CC1` (stereo unspecified) [AMG-925] returned a drug sensitivity score of 0.1.
